Test results reported in patent US5776912A, “Lipophilic oligosaccharide antibiotic compositions” (Schering Corporation, priority 1996, dated 1998).
Where a name gives a salt, the structure may show the parent alone. Read-outs that look alike come from different tables or passages of the source.

What was measured:
bacteria = format: cell-based
[1] = tested on: enterococci resistant to vancomycin; assay: microbe, parasite or virus in culture; format: cell-based
L. longbeacheae = assay: MIC, L. longbeacheae; format: cell-based
gram-negative bacteria = assay: Agar dilution MIC, gram-negative bacteria; format: cell-based
Enterococcus faecalis = assay: Agar dilution MIC, Enterococcus faecalis; format: cell-based; conditions: printed for E. faecalis and E. faecium together
[2] = tested on: various strains of streptococci; assay: Agar dilution MIC, streptococci; format: cell-based
Enterococcus faecium = assay: Agar dilution MIC, Enterococcus faecium; format: cell-based; conditions: printed for E. faecalis and E. faecium together
Borrelia burgdorferi = assay: MIC, Borrelia burgdorferi; format: cell-based
[3] = tested on: various clinical and laboratory strains of staphylococci; assay: Bactericidal activity, staphylococci; format: cell-based
Mycoplasma sp. = assay: MIC, Mycoplasma sp.; format: cell-based
[4] = tested on: methicillin-susceptible staphylococci; assay: Agar dilution MIC, methicillin-susceptible staphylococci; format: cell-based
[5] = tested on: methicillin-resistant staphylococci; format: cell-based
Trichomonas vaginalis = assay: MIC, Trichomonas vaginalis; format: cell-based
Legionella pneumophila = format: cell-based
[6] = tested on: E. faecalis 91031103 (Vancomycin resistant); assay: Mouse protection model, PD50 (Table 4), vancomycin resistant E. faecalis 91031103; format: in vivo, Enterococcus faecalis (infection in CF1 mice); conditions: Enterococcus faecalis, read-out: PD50
From the text: (§1) PD 50 Valves Showing Efficacy of Composition Containing the
(§2) Compound of Formula III Against Bacterial Infections^1 in CF1
(§3) ^1 Injections were by IP route
(§4) ^2 CFI mice are Charles River CFI, ca 20 g while male mice
(§5) ^4 PD50 Dosing routes for drugs: IV for A, B and C; SC for D in
(§6) ^5. Multiple of one LD100 (lethal dose to kill 100% of animals) of
(§7) organism given to mice. (Measure of severity of the infection.)
(§8) See Table 4 for PD50 values for the compositions of the compound of formula III including a preferred composition of the present invention (Drug B) compared to those for vancomycin (Drug C) and amikacin (drug D).

S. aureus 85111205 = assay: Mouse protection model, PD50 (Table 4), S. aureus 85111205; format: in vivo, Staphylococcus aureus (infection in CF1 mice); conditions: Staphylococcus aureus, 85111205, iv, read-out: PD50
From the text: as §1, §2, §3, §4, §5, §6, §7, §8

S. aureus 78100502 = assay: Mouse protection model, PD50 (Table 4), S. aureus 78100502; format: in vivo, Staphylococcus aureus (infection in CF1 mice); conditions: Staphylococcus aureus, drug IV, 20 × LD, 2.2 × 10^8 CFU/mouse IP
From the text: as §1, §2, §3, §4, §5, §6, §7, §8

E. faecalis 88032810 = assay: Mouse protection model, PD50 (Table 4), E. faecalis 88032810; format: in vivo, Enterococcus faecalis (infection in CF1 mice); conditions: read-out: PD50
From the text: as §1, §2, §3, §4, §5, §6, §7, §8

[7] = pH of aqueous solutions formed with bases; format: physicochemical
[8] = Formation of aqueous solutions; format: physicochemical; conditions: in water
[9] = agar dilution, Mueller-Hinton agar

## 56-deacetyl-57-demethyl-45-O-de(2-methyl-1 -oxopropyl)-12-O-(2,3,6-trideoxy-3-C-methyl-4-O-methyl-3-nitro-α-L-arabino-hexopyransoyl)-flambamycin 56-(2,4-dihydroxy-6-methylbenzoate) [compound of Formula III]
bacteria
  cross resistance with other antibiotics: No cross resistance with other antibiotics was observed
[1]; enterococci resistant to vancomycin
  activity (in words): good activity
L. longbeacheae
  MICs: 2.5 µg/mL
gram-negative bacteria
  GMM (geometric mean MIC): > 760 µg/mL
Enterococcus faecalis
  GMM (geometric mean MIC): 0.49 µg/mL
[2]
  MICs: < 0.5 µg/mL
Enterococcus faecium
  GMM (geometric mean MIC): 0.49 µg/mL
Borrelia burgdorferi
  MICs: < 0.49 µg/mL
[3]
  bactericidal activity: moderate bactericidal activity
Mycoplasma sp.
  MICs: 200 µg/mL
[4]; [9]
  GMM (geometric mean MIC): 0.5 µg/mL
[4]; more potent than vancomycin
  potency relative to vancomycin: 2 fold
[5]; [9]
  GMM (geometric mean MIC): 0.1 µg/mL
[5]; more potent than vancomycin
  potency relative to vancomycin: 2 fold
Trichomonas vaginalis
  MICs: > 192 µg/mL
Legionella pneumophila
  MICs: 2.5 µg/mL

## CN[C@H](CC(C)C)C(=O)N[C@H]1C(=O)N[C@@H](CC(N)=O)C(=O)N[C@H]2C(=O)N[C@H]3C(=O)N[C@H](C(=O)N[C@H](C(=O)O)c4cc(O)cc(O)c4-c4cc3ccc4O)[C@H](O)c3ccc(c(Cl)c3)Oc3cc2cc(c3O[C@@H]2O[C@H](CO)[C@@H](O)[C@H](O)[C@H]2O[C@H]2C[C@](C)(N)[C@H](O)[C@H](C)O2)Oc2ccc(cc2Cl)[C@H]1O [Drug C, Vancomycin HCl]
[1]; read-out: MICs
  MIC: > 128 µg/mL
[6]; iv
  ED50: 100 mg/kg
S. aureus 85111205
  ED50: 26 mg/kg
S. aureus 78100502
  ED50: 6 mg/kg
E. faecalis 88032810; Enterococcus faecalis, 88032810, iv
  ED50: 10 mg/kg

## NCC[C@H](O)C(=O)N[C@@H]1C[C@H](N)[C@@H](O[C@H]2O[C@H](CN)[C@@H](O)[C@H](O)[C@H]2O)[C@H](O)[C@H]1O[C@H]1O[C@H](CO)[C@@H](O)[C@H](N)[C@H]1O [Drug D, Amikacin]
[6]; drug SC, 1.7 × LD, 1.5 × 10^9 CFU/mouse IP
  ED50: 49 mg/kg
E. faecalis 88032810; Enterococcus faecalis, 88032810, drug SC, 10 × LD, 9.7 × 10^8 CFU/mouse IP
  ED50: 115 mg/kg

## NCCCC[C@H](N)C(=O)O [Lysine]
[7]
  pH of aqueous solution: less than 9.3

## [Ba+2].[OH-].[OH-] [barium hydroxide]
[8]
  formation of aqueous solution: did not form aqueous solutions

## [Ca+2].[OH-].[OH-] [calcium hydroxide]
[8]
  formation of aqueous solution: did not form aqueous solutions
